Results taken from US6548510B1, “Pharmaceutical composition containing deoxypeganine for the treatment of nicotine dependence” (priority 1999, dated 2003).

Tests used:
smokers = test: Influence of deoxypeganine on the smoking of healthy subjects; format: in vivo, human; settings: for Cigarette consumption after administration of 50 mg of deoxypeganine HCl/day: subject (smoker), 50 mg/day, administration period 24 hours
Experimental: Example: Influence of deoxypeganine on the smoking of healthy subjects
In the context of the testing of a deoxypeganine-containing formulation which releases about 50 mg of deoxypeganine hydrochloride per day in vivo, in addition to other subjects two smokers were also used as test subjects, as “smoking” was not an exclusion criterion in the testing. […] The administration period was 24 hours.

acetylcholinesterase = acetylcholinesterase (Homo sapiens, UniProt P22303); settings: cited from earlier work
monoamine oxidase = settings: cited from earlier work
[1] = in contrast to neostigmine; cited from earlier work

acetylcholinesterase, sequence (P22303 32-614, species assumed): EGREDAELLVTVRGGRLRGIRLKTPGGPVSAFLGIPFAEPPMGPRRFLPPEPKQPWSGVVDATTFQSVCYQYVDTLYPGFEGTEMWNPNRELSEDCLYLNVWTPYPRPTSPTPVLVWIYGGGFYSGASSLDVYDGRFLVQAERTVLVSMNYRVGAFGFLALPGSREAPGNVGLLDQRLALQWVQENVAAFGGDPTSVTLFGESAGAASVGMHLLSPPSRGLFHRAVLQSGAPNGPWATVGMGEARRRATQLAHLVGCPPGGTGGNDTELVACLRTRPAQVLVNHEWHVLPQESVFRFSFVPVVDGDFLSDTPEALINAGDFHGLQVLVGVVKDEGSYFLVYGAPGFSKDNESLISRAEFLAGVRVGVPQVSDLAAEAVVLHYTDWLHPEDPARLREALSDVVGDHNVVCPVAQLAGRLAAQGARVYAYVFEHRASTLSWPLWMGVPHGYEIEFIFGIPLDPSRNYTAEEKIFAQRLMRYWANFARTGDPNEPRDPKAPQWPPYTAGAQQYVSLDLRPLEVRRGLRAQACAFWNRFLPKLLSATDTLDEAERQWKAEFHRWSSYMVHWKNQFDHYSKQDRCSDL

Compound: Cl.c1ccc2c(c1)CN1CCCC1=N2 [deoxypeganine HCl, deoxypeganine hydrochloride]
- Cigarette consumption after administration of 50 mg of deoxypeganine HCl/day (smokers; without deoxypeganine 22 cigarettes/day (mean of n = 3)): 3 cigarettes
- Cigarette consumption after administration of 50 mg of deoxypeganine HCl/day (smokers; without deoxypeganine 41 cigarettes/day (mean of n = 5)): 6 cigarettes
- Desire for cigarettes (smokers; two smokers, formulation releasing about 50 mg of deoxypeganine hydrochloride per day, 24 hours): obviously suppressed

Compound: c1ccc2c(c1)CN1CCCC1=N2 [deoxypeganine]
- Reduction in cigarette consumption (smokers; single administration of 50 mg/day): considerable reduction
- Cholinesterase inhibitory action in comparison to physostigmine (acetylcholinesterase; based on the unit of weight): somewhat lower
- Acetylcholinesterase inhibition (acetylcholinesterase; reversibly acting cholinesterase inhibitor): inhibits
- Monoamine oxidase inhibition (monoamine oxidase): inhibits
- Blood-brain barrier crossing [1]: crosses the blood-brain barrier
